Measured values taken from PubChem BioAssay AID248 (DTP/NCI, 2004).
“And” between values parts separate entries of the source, which are not always exact repeats. Equal entries are not always repeated. Inconclusive results and toxic doses are left out. Square brackets hold non-standard residues; d marks the D form. Peptide text beside a SMILES is read from it. * marks the point of attachment. ξ: configuration not given here. ξE = NC(CCC(=O)O)C(=O)O; Cbz = O=C(OCc1ccccc1)*

System: L1210 leukemia ip in BDF1 mice, survival T/C
Assay: NCI In Vivo Anticancer Drug Screen. Data for tumor model L1210 Leukemia (intraperitoneal) in B6D2F1 (BDF1) mice
Settings: endpoint: mean survival time, higher = longer survival
Outline: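 Transplantable tumor model; survival measured in treated vs vehicle control mice. Value = treated/control.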

[1] = dose: 100.0 mg/kg/injection, schedule: Q01DX001 (ip), vehicle: saline
[2] = dose: 200.0 mg/kg/injection, schedule: Q01DX001 (ip), vehicle: saline
[3] = dose: 400.0 mg/kg/injection, schedule: Q01DX001 (ip), vehicle: saline
[4] = dose: 50.0 mg/kg/injection, schedule: Q01DX009 (ip), vehicle: Klucel (hydroxypropylcellulose) (HPC)
[5] = dose: 100.0 mg/kg/injection, schedule: Q01DX009 (ip), vehicle: Klucel (hydroxypropylcellulose) (HPC)
[6] = dose: 100.0 mg/kg/injection, schedule: Q04DX003 (ip), vehicle: Klucel (hydroxypropylcellulose) (HPC)
[7] = dose: 200.0 mg/kg/injection, schedule: Q01DX009 (ip), vehicle: Klucel (hydroxypropylcellulose) (HPC)
[8] = dose: 200.0 mg/kg/injection, schedule: Q04DX003 (ip), vehicle: Klucel (hydroxypropylcellulose) (HPC)
[9] = dose: 100.0 mg/kg/injection, schedule: Q04DX002 (ip), vehicle: Klucel (hydroxypropylcellulose) (HPC)
[10] = dose: 200.0 mg/kg/injection, schedule: Q04DX002 (ip), vehicle: Klucel (hydroxypropylcellulose) (HPC)
[11] = dose: 400.0 mg/kg/injection, schedule: Q04DX002 (ip), vehicle: Klucel (hydroxypropylcellulose) (HPC)
[12] = dose: 100.0 mg/kg/injection, schedule: Q01DX001 (ip), vehicle: saline with Tween-80
[13] = dose: 200.0 mg/kg/injection, schedule: Q01DX001 (ip), vehicle: saline with Tween-80
[14] = dose: 25.0 mg/kg/injection, schedule: Q01DX009 (ip), vehicle: Klucel (hydroxypropylcellulose) (HPC)
[15] = dose: 50.0 mg/kg/injection, schedule: Q01DX001 (ip), vehicle: carboxymethylcellulose (CMC)
[16] = dose: 400.0 mg/kg/injection, schedule: Q04DX003 (ip), vehicle: Klucel (hydroxypropylcellulose) (HPC)
[17] = dose: 100.0 mg/kg/injection, schedule: Q04DX002 (ip), vehicle: saline with Tween-80
[18] = dose: 200.0 mg/kg/injection, schedule: Q04DX002 (ip), vehicle: saline with Tween-80
[19] = dose: 400.0 mg/kg/injection, schedule: Q04DX002 (ip), vehicle: saline with Tween-80

In the case of `CC(C)=Cc1ccno1`, the T/C [1] is reported as 100 % of control, the T/C [2] is reported as 100 % of control and the T/C [3] is reported as 100 % of control.
With `O=C(O)CCC(NC(=O)CNC(=O)OCc1ccccc1)C(=O)O` (stereo not drawn) (Cbz-Gly-[ξE]-OH) the T/C [4] was 95 % of control, the T/C (dose: 50.0 mg/kg/injection, schedule: Q04DX003 (ip), vehicle: Klucel (hydroxypropylcellulose) (HPC)) was 92 % of control and the T/C [5] was 97 % of control. For the same molecule, the T/C [6] was 96 % of control, the T/C [7] was 93 % of control and the T/C [8] was 93 % of control.
With `O=C1CCCC/C1=C/c1ccco1` the T/C [9] was 95 % of control, the T/C [10] was 99 % of control and the T/C [11] was 99 % of control.
In the case of `Nc1ncnc2c1ncn2C1OCC(O)C(O)C1O` (stereo not given), the T/C [1] is reported as 106 % of control, the T/C [2] is reported as 98 % of control and the T/C [3] is reported as 91 % of control.
With `Cc1cc([N+](=O)[O-])c2nnnn2c1` the T/C (dose: 100.0 mg/kg/injection, schedule: Q01DX001 (ip), vehicle: other) was 108 % of control and the T/C (dose: 200.0 mg/kg/injection, schedule: Q01DX001 (ip), vehicle: other) was 90 % of control.
With `C#CC(OC(=O)NC(CCSC)C(=O)OC)(c1ccccc1)c1ccccc1` (stereo not given) the T/C [12] was 99 % of control and the T/C [13] was 99 % of control.
In the case of `O=S(=O)(/C=C\c1ccccc1)CBr`, the T/C [9] is reported as 100 % of control, the T/C [10] is reported as 97 % of control and the T/C [11] is reported as 106 % of control.
`CC(=O)OC(CC(=O)CC(O)(C(F)(F)F)C(F)(F)F)(C(F)(F)F)C(F)(F)F` was tested, and the T/C (dose: 6.25 mg/kg/injection, schedule: Q01DX009 (ip), vehicle: saline) was 94 % of control, the T/C (dose: 12.5 mg/kg/injection, schedule: Q01DX009 (ip), vehicle: saline) was 91 % of control and the T/C (dose: 25.0 mg/kg/injection, schedule: Q01DX009 (ip), vehicle: saline) was 88 % of control.
For `CCCCN(CCCC)CC(O)c1cc(Cl)cc2cccnc12` (stereo not given), the T/C (dose: 12.5 mg/kg/injection, schedule: Q01DX009 (ip), vehicle: Klucel (hydroxypropylcellulose) (HPC)) was 106 % of control, the T/C [14] was 98 % of control and the T/C [4] was 109 % of control.
For `CCCC(NC(=O)OCC)NC(=O)OCC`, the T/C [15] was 95 % of control, the T/C (dose: 100.0 mg/kg/injection, schedule: Q01DX001 (ip), vehicle: carboxymethylcellulose (CMC)) was 92 % of control and the T/C (dose: 200.0 mg/kg/injection, schedule: Q01DX001 (ip), vehicle: carboxymethylcellulose (CMC)) was 90 % of control. The T/C (dose: 400.0 mg/kg/injection, schedule: Q01DX001 (ip), vehicle: carboxymethylcellulose (CMC)) was 92 % of control.
With `Cc1[nH]c(=O)[nH]c(=O)c1/C=C/C(=O)O` the T/C [1] was 97 % of control, the T/C (dose: 100.0 mg/kg/injection, schedule: Q01DX009 (ip), vehicle: saline) was 108 % of control and the T/C [2] was 100 % of control. For the same molecule, the T/C (dose: 200.0 mg/kg/injection, schedule: Q01DX009 (ip), vehicle: saline) was 102 % of control, the T/C [3] was 97 % of control and the T/C (dose: 400.0 mg/kg/injection, schedule: Q01DX009 (ip), vehicle: saline) was 106 % of control.
With `O=CN/N=C/c1ccc(Cl)c([N+](=O)[O-])c1` the T/C (dose: 75.0 mg/kg/injection, schedule: Q01DX001 (ip), vehicle: acetone) was 93 % of control, the T/C (dose: 150.0 mg/kg/injection, schedule: Q01DX001 (ip), vehicle: acetone) was 92 % of control and the T/C (dose: 300.0 mg/kg/injection, schedule: Q01DX001 (ip), vehicle: acetone) was 92 % of control.
For `[CH3][Sn]([CH3])([CH3])[O]C(=O)CCl`, the T/C (dose: 0.78 mg/kg/injection, schedule: Q01DX009 (ip), vehicle: Klucel (hydroxypropylcellulose) (HPC)) was 97 % of control, the T/C (dose: 0.78 mg/kg/injection, schedule: Q04DX002 (ip), vehicle: Klucel (hydroxypropylcellulose) (HPC)) was 97 % of control and the T/C (dose: 1.56 mg/kg/injection, schedule: Q01DX009 (ip), vehicle: Klucel (hydroxypropylcellulose) (HPC)) was 87 % of control. The T/C (dose: 1.56 mg/kg/injection, schedule: Q04DX002 (ip), vehicle: Klucel (hydroxypropylcellulose) (HPC)) was 93 % of control and the T/C (dose: 3.12 mg/kg/injection, schedule: Q04DX002 (ip), vehicle: Klucel (hydroxypropylcellulose) (HPC)) was 93 % of control.
For `CCCCCCCC(C(C)=O)C(=O)OCC` (stereo not given), the T/C [12] was 95 % of control, the T/C [13] was 103 % of control and the T/C (dose: 400.0 mg/kg/injection, schedule: Q01DX001 (ip), vehicle: saline with Tween-80) was 95 % of control.
`Nc1cc(Cl)cc2c1-c1c(Cl)cc(Cl)cc1C2=O` was tested, and the T/C [5] was 100 % of control, the T/C [6] was 97 % of control and the T/C [7] was 106 % of control. For the same molecule, the T/C [8] was 95 % of control.
`Nc1cc2c3ccccc3ccc2c2ccccc12` was tested, and the T/C (dose: 67.0 mg/kg/injection, schedule: Q01DX009 (ip), vehicle: saline with Tween-80) was 105 % of control, the T/C (dose: 100.0 mg/kg/injection, schedule: Q01DX009 (ip), vehicle: saline with Tween-80) was 105 % of control and the T/C (dose: 150.0 mg/kg/injection, schedule: Q01DX009 (ip), vehicle: saline with Tween-80) was 96 % of control. For the same molecule, the T/C (dose: 225.0 mg/kg/injection, schedule: Q01DX009 (ip), vehicle: saline with Tween-80) was 97 % of control.
`Nc1nc(=S)c2[nH]c(N=Nc3ccc(S(=O)(=O)Nc4cnc5ccccc5n4)cc3)nc2[nH]1` was tested, and the T/C [14] was 112 % of control, the T/C [4] was 109 % of control and the T/C [5] was 91 % of control.
In the case of `[O-][n+]1ccccc1F`, the T/C (dose: 5.0 mg/kg/injection, schedule: Q01DX001 (ip), vehicle: saline) is reported as 100 % of control, the T/C (dose: 10.0 mg/kg/injection, schedule: Q01DX001 (ip), vehicle: saline) is reported as 102 % of control and the T/C (dose: 20.0 mg/kg/injection, schedule: Q01DX001 (ip), vehicle: saline) is reported as 103 % of control. For the same molecule, the T/C (dose: 40.0 mg/kg/injection, schedule: Q01DX001 (ip), vehicle: saline) was 96 % of control and the T/C (dose: 80.0 mg/kg/injection, schedule: Q01DX001 (ip), vehicle: saline) was 98 % of control.
`Nc1ccccc1SC1CC(=O)N(c2ccc(Br)cc2)C1=O` (stereo not given) was tested, and the T/C (dose: 100.0 mg/kg/injection, schedule: Q04DX002 (ip), vehicle: gum acacia) was 95 % of control, the T/C (dose: 200.0 mg/kg/injection, schedule: Q04DX002 (ip), vehicle: gum acacia) was 88 % of control and the T/C (dose: 400.0 mg/kg/injection, schedule: Q04DX002 (ip), vehicle: gum acacia) was 95 % of control.
`[N-]=[N+]=C1N=CN=C1c1ncn[nH]1` was tested, and the T/C (dose: 6.0 mg/kg/injection, schedule: Q01DX015 (ip), vehicle: carboxymethylcellulose (CMC)) was 120 % of control, the T/C [15] was 115 % of control and the T/C (dose: 55.0 mg/kg/injection, schedule: Q01DX015 (ip), vehicle: carboxymethylcellulose (CMC)) was 172 % of control.
For `CCOC(=O)/C(Cc1n[n+]([O-])ccc1Cl)=N\N`, the T/C (dose: 43.75 mg/kg/injection, schedule: Q04DX002 (ip), vehicle: Klucel (hydroxypropylcellulose) (HPC)) was 116 % of control, the T/C (dose: 87.5 mg/kg/injection, schedule: Q04DX002 (ip), vehicle: Klucel (hydroxypropylcellulose) (HPC)) was 101 % of control and the T/C (dose: 175.0 mg/kg/injection, schedule: Q04DX002 (ip), vehicle: Klucel (hydroxypropylcellulose) (HPC)) was 96 % of control.
`O=[N+]([O-])c1ccc(C=Nc2ccc(OCc3ccccc3)cc2)s1` was tested, and the T/C [6] was 91 % of control, the T/C [8] was 88 % of control and the T/C [16] was 91 % of control.
`NCC(=O)NC1(C(=O)O)C2CC3CC(C2)CC1C3` (stereo not given) was tested, and the T/C [14] was 96 % of control, the T/C [4] was 94 % of control and the T/C [5] was 94 % of control and 96 % of control. For the same molecule, the T/C [7] was 103 % of control and the T/C (dose: 400.0 mg/kg/injection, schedule: Q01DX009 (ip), vehicle: Klucel (hydroxypropylcellulose) (HPC)) was 103 % of control.
For `CC(C)OP(=O)(NO)OC(C)C`, the T/C [1] was 97 % of control, the T/C [2] was 92 % of control and the T/C [3] was 90 % of control.
`O=[N+]([O-])c1ccc(Cl)c(OCCCBr)c1` was tested, and the T/C [6] was 108 % of control, the T/C [8] was 95 % of control and the T/C [16] was 94 % of control.
In the case of `CC(C)(O)S(=O)(=O)O`, the T/C [17] is reported as 95 % of control, the T/C [18] is reported as 101 % of control and the T/C [19] is reported as 98 % of control.
For `Oc1ccc2ccccc2c1/C=C1/C=Nc2ccccc21`, the T/C [17] was 88 % of control, the T/C [18] was 88 % of control and the T/C [19] was 103 % of control.
In the case of `O=C1C=C2CCN(C(=O)c3ccccc3)CC2O1` (stereo not given), the T/C [1] is reported as 100 % of control, the T/C [2] is reported as 105 % of control and the T/C [3] is reported as 100 % of control.
For `Cc1ccccc1NC(=O)NCC(=O)O`, the T/C [6] was 104 % of control, the T/C [8] was 98 % of control and the T/C [16] was 93 % of control.
